Converted amounts (≈) assume the structure as drawn. Where two headings read alike, the source gives them in different places.
Legend:
[1] = Pharmacokinetics assay in rats (LC/MS/MS of plasma); type: in vivo, Sprague Dawley (SD) rats; settings: rat; for Vd/F: read-out: Vz/F
Procedure: The rats were used as test animals. The compound of formula (I) and other salts thereof were administrated intragastrically, and a maleate salt of the compound of formula (I) was injected into the tail vein to determine the drug concentration in plasma at different time points by an LC/MS/MS method. The pharmacokinetic behavior, characteristics and the oral absolute bioavailability of the present compounds were studied and evaluated in rats. […] 28 healthy adult Sprague Dawley (SD) rats, half male and half female, were purchased from SINO-BRITSH SIPPR/BK LAB. ANIMAL LTD., CO, License number: SCXK (Shanghai) 2008-0016, and divided into 7 groups (4 rats in each group). The intravenous injection group: a suitable amount of compounds was weighed, dissolved in DMSO and diluted with normal saline to the final volume. […] healthy adult SD rats, half male and half female, were divided into 7 groups (4 rats in each group). […] For the intravenous injection group, blood samples (0.2 mL) were taken from orbital sinus before administration and at 2 min, 15 min, 30 min, 1.0 […] and 36.0 h after administration, stored in heparinized tubes and centrifuged for 10 minutes at 3,500 rpm to separate blood plasma. The plasma samples were stored at -20° C. For the intragastrical administration group, blood samples were taken before administration and at 0.5, 1.0, 2.0, 3.0, 4.0, 6.0, 8.0, 12.0, 24.0 and 36.0 hours after administration. The method to treat the samples was the same as with the intravenous injection group. The rats were fed 2 hours after administration.

[2] = test system: human epidermoid carcinoma A431 cells, which have high expression of EGFR; experiment: EGFR cell proliferation inhibition assay (SRB, 72 hours); type: cell-based; settings: read-out: IC50 (EGFR/A431)
Procedure: The activity is represented by the IC50 value. The general procedures of the assay were as follows: the cancer cells A431 highly expressing EGFR were chosen and seeded in a 96-well cell culture plate at a suitable density (e.g., 5000 cells/mL medium). The cells were then incubated in a carbon dioxide incubator until they reached 85% confluence. Then, the cell culture medium was replaced by fresh medium containing the test compounds with serial dilutions (general 6 to 7 concentrations). The cells were put back in the incubator and cultured continuously for 72 hours. The activity of the test compounds for inhibiting the cell proliferation was determined by using a Sulforhodamine B (SRB) method. IC50 values were calculated by the rate of inhibition at various concentrations of the test compounds.

HER-2 kinase = HER-2 kinase (Homo sapiens, UniProt P04626); experiment: HER-2 kinase activity assay (time-resolved fluorescence); type: biochemical; settings: table of the HER-2 kinase activity assay; human-derived recombinant HER-2 kinase, 20 μM ATP, 25° C., 45 minutes; read-out: IC50 (HER-2/SK-BR-3)
HER-2 kinase, sequence (P04626 23-1255): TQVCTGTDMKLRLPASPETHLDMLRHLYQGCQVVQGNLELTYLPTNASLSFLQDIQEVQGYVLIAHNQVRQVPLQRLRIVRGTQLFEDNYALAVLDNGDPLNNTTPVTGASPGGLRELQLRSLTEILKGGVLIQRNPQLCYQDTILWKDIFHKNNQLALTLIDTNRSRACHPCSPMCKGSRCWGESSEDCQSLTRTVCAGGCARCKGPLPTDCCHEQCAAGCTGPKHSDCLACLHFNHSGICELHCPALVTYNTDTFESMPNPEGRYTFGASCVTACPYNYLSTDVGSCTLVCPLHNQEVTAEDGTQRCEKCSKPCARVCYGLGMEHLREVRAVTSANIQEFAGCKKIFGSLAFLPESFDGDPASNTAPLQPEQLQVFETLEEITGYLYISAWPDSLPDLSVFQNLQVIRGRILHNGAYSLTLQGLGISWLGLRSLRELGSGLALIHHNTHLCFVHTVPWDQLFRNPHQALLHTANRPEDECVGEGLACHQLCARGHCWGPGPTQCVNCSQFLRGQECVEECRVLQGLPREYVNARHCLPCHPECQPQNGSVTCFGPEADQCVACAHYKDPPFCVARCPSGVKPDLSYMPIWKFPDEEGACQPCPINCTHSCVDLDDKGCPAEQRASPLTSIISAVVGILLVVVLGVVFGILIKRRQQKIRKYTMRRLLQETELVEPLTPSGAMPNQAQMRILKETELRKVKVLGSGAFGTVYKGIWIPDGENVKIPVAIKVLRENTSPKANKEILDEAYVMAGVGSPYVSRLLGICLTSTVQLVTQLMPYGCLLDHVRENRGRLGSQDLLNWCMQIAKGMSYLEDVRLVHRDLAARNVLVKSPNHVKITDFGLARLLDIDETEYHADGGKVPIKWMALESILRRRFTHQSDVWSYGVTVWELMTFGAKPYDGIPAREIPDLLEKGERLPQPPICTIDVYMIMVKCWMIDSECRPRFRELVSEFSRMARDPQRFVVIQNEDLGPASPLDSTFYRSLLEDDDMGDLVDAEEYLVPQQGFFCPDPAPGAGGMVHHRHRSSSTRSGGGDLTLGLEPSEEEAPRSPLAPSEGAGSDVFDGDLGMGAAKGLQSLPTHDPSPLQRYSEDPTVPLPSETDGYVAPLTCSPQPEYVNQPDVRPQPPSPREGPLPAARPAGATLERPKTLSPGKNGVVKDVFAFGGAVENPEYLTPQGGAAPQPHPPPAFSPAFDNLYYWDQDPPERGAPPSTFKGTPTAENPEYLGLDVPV
Procedure: The in vitro HER-2 kinase activity was tested by the following assay.
The following assay was used to determine the activity of the compounds of the present invention for inhibiting HER-2 kinase. The half maximal inhibitory concentration IC50 (the concentration of the test compound showing 50% inhibition of the enzyme activity) of each compound was determined by incubating several different concentrations of the test compounds with a specific enzyme and substrate. […] The HER-2 kinase activity was determined by using a time-resolved fluorescence method.

Solubility assay [3] = type: physicochemical
Procedure: According to the conventional solubility measurement, the solubility of a compound of formula (I) and salts thereof was determined in three different systems: water, physiological saline and methanol.

Solubility assay [4] = type: physicochemical; settings: for solubility: 0.1 M hydrochloric acid, simulated gastric fluid
[5] = test system: human carcinoma SK-BR-3 cells, which have high expression of HER-2; experiment: HER-2 cell activity assay (SRB, 96 hours); type: cell-based
Source text: The following in vitro assay was to determine the activity of the compounds of the present invention for inhibiting the proliferation of human carcinoma SK-BR-3 cells, which have high expression of HER-2.
The following in vitro assay was to determine the activity of the test compounds for inhibiting the angiogenesis and proliferation of cancer cells, which have high expression of HER-2. The activity is represented by the IC50 value. The general procedure of the assay was as follows: the cancer cells line SK-BR-3 highly expressing HER-2 was chosen and the cells were seeded in a 96-well cell culture plate at a suitable density. The cells then were incubated in a carbon dioxide incubator until they reached 60% confluence. Then, the cell culture medium was replaced by fresh medium with the test compounds at various concentrations (6 to 7 concentrations). The cells were put back in the incubator and cultured continuously for 96 hours. The activity of the test compounds for inhibiting the cell proliferation was determined by using a Sulforhodamine B (SRB) method. IC50 values of test cells were calculated by the rate of inhibition at various concentrations of the test compounds.

[6] = both sexes, Sprague-Dawley, plasma, iv, 25 mg/kg, vein (tail vein injection)
[7] = both sexes, Sprague-Dawley, plasma, iv, 25 mg/kg, vein (tail vein injection), read-out: AUC0-t
[8] = both sexes, Sprague-Dawley, plasma, iv, 25 mg/kg, vein (tail vein injection), read-out: MRT
[9] = both sexes, Sprague-Dawley, plasma, po, 25 mg/kg, gavage
[10] = both sexes, Sprague-Dawley, plasma, po, 25 mg/kg, gavage, read-out: AUC0-t
[11] = both sexes, Sprague-Dawley, plasma, po, 25 mg/kg, gavage, read-out: Cmax
[12] = both sexes, Sprague-Dawley, plasma, po, 25 mg/kg, gavage, read-out: MRT
[13] = vein (tail vein injection), 25 mg/kg, dimaleate
[14] = gavage, 25 mg/kg, trimethanesulphonate
[15] = vein (tail vein injection), 25 mg/kg, trimethanesulphonate
[16] = vein (tail vein injection), 25 mg/kg
[17] = physiological saline, saline or isotonic, physiological saline, read-out: Solubility Value, Physiological saline
[18] = water, read-out: Solubility Value, Water
[19] = gavage, 25 mg/kg, dimethanesulfonate
[20] = vein (tail vein injection), 25 mg/kg, dimethanesulfonate

Compound: CCOc1cc2ncc(C#N)c(Nc3ccc(OCc4ccccn4)c(Cl)c3)c2cc1NC(=O)/C=C/[C@H]1CCCN1C.CS(=O)(=O)O [Example 4, (E)-N-[4-[[3-chloro-4-(2-pyridylmethoxy)phenyl]amino]-3-cyano-7-ethoxy-6-quinolyl]-3-[(2R)-1-methylpyrrolidin-2-yl]prop-2-enamide methanesulfonate]
- half-life [1, 6]: 3.77 ± 0.22 h
- AUC(0-t) [1, 7]: 146 ± 40.4 µg·h/mL
- MRT [1, 8]: 5.46 ± 0.48 h
- CL/F [1, 9]: 5.33 mL/min/kg
- half-life [1, 9]: 3.67 ± 0.83 h
- AUC(0-t) [1, 10]: 92.3 ± 37 µg·h/mL
- Cmax [1, 11]: 6920 ± 1820 ng/mL
- MRT [1, 12]: 8.4 ± 0.65 h
- Vd/F [1, 9]: 1.6 ± 0.54 L/kg
- F (%) ([1]; oral absolute bioavailability, 25 mg/kg (calculated by the base part), methanesulfonate): 63.2%

Compound: CCOc1cc2ncc(C#N)c(Nc3ccc(OCc4ccccn4)c(Cl)c3)c2cc1NC(=O)/C=C/[C@H]1CCCN1C.O=C(O)/C=C\C(=O)O [Example 2, (E)-N-[4-[[3-chloro-4-(2-pyridylmethoxy)phenyl]amino]-3-cyano-7-ethoxy-6-quinolyl]-3-[(2R)-1-methylpyrrolidin-2-yl]prop-2-enamide dimaleate]
- IC50 ([2]; Homo sapiens, A-431, 72 h): 31 nM
- IC50 (HER-2 kinase): 28 nM
- Solubility Value, Water (Solubility assay [3]; water, dimaleate): 1.52 mg/mL
- CL/F [1, 9]: 4.83 mL/min/kg
- half-life [1, 9]: 4.45 ± 1.63 h
- AUC(0-t) [1, 10]: 116 ± 67.2 µg·h/mL
- Cmax [1, 11]: 10200 ± 4410 ng/mL
- MRT [1, 12]: 8.03 ± 0.99 h
- Vd/F [1, 9]: 1.84 ± 1.19 L/kg
- bioavailability ([1]; both sexes, Sprague-Dawley, plasma, po, 25 mg/kg, oral absolute bioavailability, 25 mg/kg (calculated by the base part)): 48.3%
- MRT [1, 13]: 2.96 ± 0.47 h
- t1/2 [1, 13]: 3.74 ± 1.20 h
- Solubility Value, 0.1M Hydrochloric acid (Solubility assay [4]; dimaleate): 54.88 mg/mL
- Solubility Value, Physiological saline (Solubility assay [4]; dimaleate): 0.36 mg/mL

Compound: CCOc1cc2ncc(C#N)c(Nc3ccc(OCc4ccccn4)c(Cl)c3)c2cc1NC(=O)/C=C/[C@H]1CCCN1C.CS(=O)(=O)O [Example 6, (E)-N-[4-[[3-chloro-4-(2-pyridylmethoxy)phenyl]amino]-3-cyano-7-ethoxy-6-quinolyl]-3-[(2R)-1-methylpyrrolidin-2-yl]prop-2-enamide trimethanesulphonate]
- AUC(0-t) [1, 14]: 81.72 ± 22.16 µg·h/mL
- Cmax [1, 14]: 6270 ± 1580 ng/mL
- MRT [1, 14]: 8.59 ± 0.22 h
- t1/2 [1, 14]: 4.15 ± 0.09 h
- F (%) ([1]; oral absolute bioavailability, 25 mg/kg (calculated by the base part), trimethanesulphonate): 50.5%
- AUC(0-t) [1, 15]: 162.28 ± 55.65 µg·h/mL
- MRT [1, 15]: 4.94 ± 0.58 h
- t1/2 [1, 15]: 5.27 ± 0.29 h

Compound: CCOc1cc2ncc(C#N)c(Nc3ccc(OCc4ccccn4)c(Cl)c3)c2cc1NC(=O)/C=C/[C@H]1CCCN1C [Example 1f, (E)-N-[4-[[3-chloro-4-(2-pyridylmethoxy)phenyl]amino]-3-cyano-7-ethoxy-6-quinolyl]-3-[(2R)-1-methylpyrrolidin-2-yl]prop-2-enamide]
- IC50 ([5]; Homo sapiens, SK-BR-3, 96 h, read-out: IC50 (HER-2/SK-BR-3)): 59 nM
- IC50 (HER-2 kinase): 65 nM
- Solubility Value, Water (Solubility assay [3]; water): 0.008 mg/mL (≈ 13.7 µM)
- AUC(0-t) ([1]; gavage, 25 mg/kg): 52.81 ± 23.59 µg·h/mL
- F (%) ([1]; oral absolute bioavailability, 25 mg/kg (calculated by the base part)): 42.2%
- AUC(0-t) [1, 16]: 125.4 ± 38.95 µg·h/mL
- MRT [1, 16]: 4.22 ± 0.71 h
- t1/2 [1, 16]: 5.25 ± 2.01 h
- Solubility Value, 0.1M Hydrochloric acid (Solubility assay [4]): 1.43 mg/mL (≈ 2450 µM)
- solubility in conventional solvents (in words) (Solubility assay [4]; conventional solvents): poorly soluble
- Solubility Value, Physiological saline (Solubility assay [4]): 0.0026 mg/mL

Compound: CCOc1cc2ncc(C#N)c(Nc3ccc(OCc4ccccn4)c(Cl)c3)c2cc1NC(=O)/C=C/[C@H]1CCCN1C.O=C(O)C[C@H](O)C(=O)O [Example 3, (E)-N-[4-[[3-chloro-4-(2-pyridylmethoxy)phenyl]amino]-3-cyano-7-ethoxy-6-quinolyl]-3-[(2R)-1-methylpyrrolidin-2-yl]prop-2-enamide L-malate]
- IC50 ([2]; A431 cells, 72 hours, SRB, L-malate): 29 nM
- IC50 ([5]; L-malate, read-out: IC50 (HER-2/SK-BR-3)): 56 nM
- IC50 (HER-2 kinase): 71 nM
- solubility (Solubility assay [3]; [17]): 0.08 mg/mL
- solubility (Solubility assay [3]; [18]): 17.2 mg/mL
- solubility (Solubility assay [4]): 12.7 mg/mL

Compound: CCOc1cc2ncc(C#N)c(Nc3ccc(OCc4ccccn4)c(Cl)c3)c2cc1NC(=O)/C=C/[C@H]1CCCN1C.O=C(O)/C=C\C(=O)O [Example 1, (E)-N-[4-[[3-chloro-4-(2-pyridylmethoxy)phenyl]amino]-3-cyano-7-ethoxy-6-quinolyl]-3-[(2R)-1-methylpyrrolidin-2-yl]prop-2-enamide maleate]
- IC50 ([5]; read-out: IC50 (HER-2/SK-BR-3), maleate): 64 nM
- IC50 (HER-2 kinase): 53 nM
- solubility (Solubility assay [3]; [17]): 0.19 mg/mL
- half-life [1, 6]: 4.92 ± 0.6 h
- AUC(0-t) [1, 7]: 222 ± 77 µg·h/mL
- MRT [1, 8]: 5.5 ± 0.99 h
- AUC(0-t) ([1]; gavage, 25 mg/kg, maleate): 104.58 ± 56.54 µg·h/mL
- Cmax ([1]; gavage, 25 mg/kg, maleate): 8990 ± 4870 ng/mL
- MRT ([1]; gavage, 25 mg/kg, maleate): 8.93 ± 1.39 h
- t1/2 ([1]; gavage, 25 mg/kg, maleate): 4.4 ± 1.3 h
- F (%) ([1]; oral absolute bioavailability, 25 mg/kg (calculated by the base part), maleate): 47.1%
- Solubility Value, 0.1M Hydrochloric acid (Solubility assay [4]; maleate): 23.33 mg/mL
- Solubility Value, Water (Solubility assay [4]; water, maleate): 12.49 mg/mL

Compound: CCOc1cc2ncc(C#N)c(Nc3ccc(OCc4ccccn4)c(Cl)c3)c2cc1NC(=O)/C=C/[C@H]1CCCN1C.O=C(O)CCC(=O)O [Example 8, (E)-N-[4-[[3-chloro-4-(2-pyridylmethoxy)phenyl]amino]-3-cyano-7-ethoxy-6-quinolyl]-3-[(2R)-1-methylpyrrolidin-2-yl]prop-2-enamide succinate]
- IC50 ([2]; A431 cells, 72 hours, SRB, succinate): 15 nM
- IC50 ([5]; succinate, read-out: IC50 (HER-2/SK-BR-3)): 78 nM
- IC50 (HER-2 kinase): 53 nM
- solubility (Solubility assay [3]; [17]): 3.32 mg/mL
- solubility (Solubility assay [3]; [18]): 22.4 mg/mL
- solubility (Solubility assay [4]): 32.4 mg/mL

Compound: CCOc1cc2ncc(C#N)c(Nc3ccc(OCc4ccccn4)c(Cl)c3)c2cc1NC(=O)/C=C/[C@H]1CCCN1C.CS(=O)(=O)O [Example 5, (E)-N-[4-[[3-chloro-4-(2-pyridylmethoxy)phenyl]amino]-3-cyano-7-ethoxy-6-quinolyl]-3-[(2R)-1-methylpyrrolidin-2-yl]prop-2-enamide dimethanesulfonate]
- AUC(0-t) [1, 19]: 81.53 ± 40.46 µg·h/mL
- Cmax [1, 19]: 7880 ± 2510 ng/mL
- MRT [1, 19]: 7.95 ± 0.61 h
- t1/2 [1, 19]: 3.46 ± 0.56 h
- F (%) ([1]; oral absolute bioavailability, 25 mg/kg (calculated by the base part), dimethanesulfonate): 72.1%
- AUC(0-t) [1, 20]: 112.84 ± 62.1 µg·h/mL
- MRT [1, 20]: 4.2 ± 0.99 h
- t1/2 [1, 20]: 3.12 ± 0.37 h

Source: patent publication US20130338190A1, “PHARMACEUTICALLY ACCEPTABLE SALT OF (E)-N-[4-[[3-CHLORO-4-(2-PYRIDYLMETHOXY)PHENYL]AMINO]-3-CYANO-7-ETHOXY-6-QUINOLYL]-3-[(2R)-1-METHYLPYRROLIDIN-2-YL]PROP-2-ENAMIDE, PREPARATION METHOD THEREOF, AND MEDICAL USE THEREOF” (priority 2011, published 2013)
